Measurements: patent US5281604A, “Angiotensin II receptor blocking 2,3,6-substituted quinazolinones” (American Cyanamid Company, priority 1993, dated 1994)
Where “and” joins values, the source holds several entries; their conditions need not be identical. Equal entries are not always repeated.

System: ANGIOTENSIN II (AII) VASOPRESSOR RESPONSE
Assay: AII Challenge: blockade of the angiotensin II vasopressor response in conscious spontaneously hypertensive rats
Type: in vivo, rat (Male Okamoto-Aoki SHR)
Settings: 3 mg/kg i.v.
[1] = AII 0.05 mcg/kg IV, 30 min post dose
[2] = AII 0.05 mcg/kg IV, 60 min post dose
[3] = AII 0.05 mcg/kg IV, 90 min post dose
[4] = AII 0.05 mcg/kg IV, 120 min post dose
[5] = AII 0.05 mcg/kg IV, 180 min post dose
[6] = AII 0.05 mcg/kg IV, 240 min post dose
[7] = AII 0.05 mcg/kg IV, 300 min post dose
[8] = AII 0.1 mcg/kg IV, 30 min post dose
[9] = AII 0.1 mcg/kg IV, 60 min post dose
[10] = AII 0.1 mcg/kg IV, 90 min post dose
[11] = AII 0.1 mcg/kg IV, 120 min post dose
[12] = AII 0.1 mcg/kg IV, 180 min post dose
[13] = AII 0.1 mcg/kg IV, 240 min post dose
[14] = AII 0.1 mcg/kg IV, 300 min post dose

CCCCc1nc2ccc(C3CC4C(O3)ON3C4CCC3(C)C)cc2c(=O)n1Cc1ccc(-c2ccccc2-c2nnn[nH]2)cc1 (stereo not shown) [Example 14]
% Inhibition [1]: 79%
Average Change [1]: 7.5 mmHg
Control Before AII (single rat) [1]: 225 mmHg and 240 mmHg
Response After AII (single rat) [1]: 225 mmHg and 250 mmHg
Response Change (single rat) [1]: 0 mmHg and 15 mmHg
% Inhibition [2]: 64%
Average Change [2]: 12.5 mmHg
Control Before AII (single rat) [2]: 225 mmHg and 240 mmHg
Response After AII (single rat) [2]: 235 mmHg and 255 mmHg
Response Change (single rat) [2]: 10 mmHg and 15 mmHg
% Inhibition [3]: 74%
Average Change [3]: 9 mmHg
Control Before AII (single rat) [3]: 225 mmHg and 237 mmHg
Response After AII (single rat) [3]: 235 mmHg and 245 mmHg
Response Change (single rat) [3]: 10 mmHg and 8 mmHg
% Inhibition [4]: 76%
Average Change [4]: 8.5 mmHg
Control Before AII (single rat) [4]: 210 mmHg and 230 mmHg
Response After AII (single rat) [4]: 215 mmHg and 242 mmHg
Response Change (single rat) [4]: 5 mmHg and 12 mmHg
% Inhibition [5]: 76%
Average Change [5]: 8.5 mmHg
Control Before AII (single rat) [5]: 215 mmHg and 230 mmHg
Response After AII (single rat) [5]: 225 mmHg and 237 mmHg
Response Change (single rat) [5]: 10 mmHg and 7 mmHg
% Inhibition [6]: 71%
Average Change [6]: 10 mmHg
Control Before AII (single rat) [6]: 205 mmHg and 230 mmHg
Response After AII (single rat) [6]: 215 mmHg and 240 mmHg
Response Change (single rat) [6]: 10 mmHg
% Inhibition [7]: 74%
Average Change [7]: 9 mmHg
Control Before AII (single rat) [7]: 220 mmHg and 235 mmHg
Response After AII (single rat) [7]: 228 mmHg and 245 mmHg
Response Change (single rat) [7]: 8 mmHg and 10 mmHg
% Inhibition [8]: 56%
Average Change [8]: 17.5 mmHg
Control Before AII (single rat) [8]: 230 mmHg and 245 mmHg
Response After AII (single rat) [8]: 240 mmHg and 270 mmHg
Response Change (single rat) [8]: 10 mmHg and 25 mmHg
% Inhibition [9]: 56%
Average Change [9]: 17.5 mmHg
Control Before AII (single rat) [9]: 215 mmHg and 245 mmHg
Response After AII (single rat) [9]: 235 mmHg and 260 mmHg
Response Change (single rat) [9]: 20 mmHg and 15 mmHg
% Inhibition [10]: 60%
Average Change [10]: 16 mmHg
Control Before AII (single rat) [10]: 220 mmHg and 240 mmHg
Response After AII (single rat) [10]: 235 mmHg and 257 mmHg
Response Change (single rat) [10]: 15 mmHg and 17 mmHg
% Inhibition [11]: 63%
Average Change [11]: 15 mmHg
Control Before AII (single rat) [11]: 215 mmHg and 230 mmHg
Response After AII (single rat) [11]: 230 mmHg and 245 mmHg
Response Change (single rat) [11]: 15 mmHg
% Inhibition [12]: 69%
Average Change [12]: 12.5 mmHg
Control Before AII (single rat) [12]: 215 mmHg and 230 mmHg
Response After AII (single rat) [12]: 225 mmHg and 245 mmHg
Response Change (single rat) [12]: 10 mmHg and 15 mmHg
% Inhibition [13]: 56%
Average Change [13]: 17.5 mmHg
Control Before AII (single rat) [13]: 215 mmHg and 225 mmHg
Response After AII (single rat) [13]: 230 mmHg and 245 mmHg
Response Change (single rat) [13]: 15 mmHg and 20 mmHg
% Inhibition [14]: 46%
Average Change [14]: 21.5 mmHg
Control Before AII (single rat) [14]: 215 mmHg and 235 mmHg
Response After AII (single rat) [14]: 233 mmHg and 260 mmHg
Response Change (single rat) [14]: 18 mmHg and 25 mmHg
